Laboratory results reported in article PMC11643494, “Structure–Activity Relationship Studies in a Series of 2-Aryloxy-N-(pyrimidin-5-yl)acetamide Inhibitors of SLACK Potassium Channels” (Molecules, 2024).

Target: T1, WT human SLACK (Homo sapiens, UniProt Q5JUK3)
T1 construct: host or cells: CHO-K1
T1 sequence (Q5JUK3 1-1235 isoform Q5JUK3-3): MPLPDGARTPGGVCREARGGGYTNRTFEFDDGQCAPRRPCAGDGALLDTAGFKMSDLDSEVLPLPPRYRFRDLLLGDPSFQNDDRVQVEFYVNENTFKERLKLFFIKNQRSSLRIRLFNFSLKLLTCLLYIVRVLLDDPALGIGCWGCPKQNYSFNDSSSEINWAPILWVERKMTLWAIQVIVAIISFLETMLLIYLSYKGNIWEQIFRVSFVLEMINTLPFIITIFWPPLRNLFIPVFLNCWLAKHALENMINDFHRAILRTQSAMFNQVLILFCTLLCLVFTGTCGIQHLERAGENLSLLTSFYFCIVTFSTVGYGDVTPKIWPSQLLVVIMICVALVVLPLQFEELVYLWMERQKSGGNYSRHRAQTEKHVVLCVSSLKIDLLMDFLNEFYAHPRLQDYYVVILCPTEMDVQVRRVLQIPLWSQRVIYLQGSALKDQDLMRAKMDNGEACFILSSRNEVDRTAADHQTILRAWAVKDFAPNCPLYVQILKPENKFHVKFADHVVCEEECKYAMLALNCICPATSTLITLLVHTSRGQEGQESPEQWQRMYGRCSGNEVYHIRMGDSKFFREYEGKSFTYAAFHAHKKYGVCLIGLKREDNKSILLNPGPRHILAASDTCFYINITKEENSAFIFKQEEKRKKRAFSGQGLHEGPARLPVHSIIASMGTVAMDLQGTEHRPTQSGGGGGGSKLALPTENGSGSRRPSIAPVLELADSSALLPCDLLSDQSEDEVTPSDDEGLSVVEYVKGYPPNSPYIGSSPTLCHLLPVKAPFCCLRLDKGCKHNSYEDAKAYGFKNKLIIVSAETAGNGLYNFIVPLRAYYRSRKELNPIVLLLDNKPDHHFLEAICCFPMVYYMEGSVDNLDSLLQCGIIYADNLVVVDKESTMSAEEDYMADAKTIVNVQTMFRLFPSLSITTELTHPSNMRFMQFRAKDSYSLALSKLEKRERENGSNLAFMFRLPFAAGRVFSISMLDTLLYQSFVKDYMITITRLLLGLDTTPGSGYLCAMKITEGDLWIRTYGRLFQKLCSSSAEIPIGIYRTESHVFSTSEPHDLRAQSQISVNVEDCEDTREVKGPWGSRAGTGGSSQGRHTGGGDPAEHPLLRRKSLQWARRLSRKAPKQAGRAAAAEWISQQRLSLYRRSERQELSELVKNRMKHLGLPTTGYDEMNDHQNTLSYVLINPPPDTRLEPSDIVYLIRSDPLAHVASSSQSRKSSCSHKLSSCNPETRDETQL
Assay: Whole-cell automated patch clamp (APC) in CHO-K1 cells stably expressing WT human SLACK
Format: cell-based
Settings: for IC50: APC, CHO-K1 cells stably expressing WT human SLACK, averages (n ≥ 3); for SLACK Imax: maximum inhibition at 30 µM test compound standardized to VU0606170 (set at 100%), WT human SLACK
Procedure: Using concentrations ranging from 0.125 to 30 µM in half-log steps, a concentration–response relationship was generated for each new analog using our APC assay in CHO-K1 cells stably expressing WT SLACK. A minimum of three cells, i.e., replicates, were collected per concentration for each analog.
Automated patch clamp recording was performed with a SyncroPatch 768 PE system (Nanion, Munich, Germany) as previously described. Whole-cell recordings were performed at room temperature. Cells were harvested by first washing with PBS without Mg^2+ or Ca^2+ (Gibco, Billings, MT, USA) to remove cell culture medium, followed by dissociation with TryPLE (Gibco, Billings, MT, USA). Cells were then resuspended and diluted to 200,000 cells/mL in external solution. External solution contained 105 mM NaCl, 4 mM KCl, 1 mM MgCl2, 5 mM CaCl2, 10 mM HEPES, 40 mM N-Methyl-D-glucamine chloride, titrated to pH 7.4 with NaOH and osmolarity of 300 mOsm/kg; internal solution contained 70 mM NaCl, 70 mM KF, 10 mM KCl, 5 mM EGTA, 5mM HEPES, titrated to a pH 7.2 with KOH and osmolarity of 295 mOsm/kg.
The APC protocol was set as following: Cells were held at […] −80 mV for 100 ms, then a ramp protocol was performed from −100 mV to 80 mV at 0.4 mV/ms, hold the cell at −80 mV for another 100 ms, then steps were performed at −20 mV, 0 mV, +20 mV, +40 mV, and +60 mV for 100 ms of each step. Whole-cell currents were measured at 0 mV and normalized to current after external buffer addition.

Row | Structure (SMILES) | IC50 | Fold improvement in potency relative to 10 (WT SLACK APC IC50) | SLACK Imax
1 | CC(C)(Oc1ccc(Cl)cc1)C(=O)Nc1cnc(Oc2c(F)cccc2F)nc1 [Analog 40] | 520 nM | ~3 fold | 98%
2 | CN(c1ccc(C#N)cc1)c1ncc(NC(=O)C(C)(C)Oc2ccc(Cl)cc2)cn1 [Analog 66] | 910 nM |  | 95%
